The source of these data is patent US6576634B1, “Pharmaceutical or dietetic preparation for improvement of fertility and sperm quality” (N.V. Nutricia, priority 2000, dated 2003).

Assay [1] deals with men suffering from round cell idiopathic syndrome. Particulars: 15 mg per day during 3 months; men with round cell idiopathic syndrome; cited from earlier work.
The test system of assay [2] is fertile men and subfertile men. The assay is described as follows: Spermcount after oral administration of folic acid, zinc or both, versus initial spermcount. Format: in vivo. Further details: key to Percentage improvement of spermcount after administration of active agents, compared to initial spermcount: 0 means about neutral; The number of + signs indicates activity; ++: The number of + signs indicates activity; +++: The number of + signs indicates activity; +++(+): The number of + signs indicates activity. The note with it: for Percentage improvement of spermcount after administration of active agents, compared to initial spermcount: daily administration during 5 months (table head; text says three months).

The next assay relates to spermatozoa. Particulars: 10 mg over 30 days; cited from earlier work.
In assay [3] the test system is males that suffer from idopathic oligospermia. The note with it: 220 mg zinc sulphate; idiopathic oligospermia; cited from earlier work.
Another assay has as its system fowl seminal plasma. The note with it: zinc concentration above 3 μg per ml storage medium; cited from earlier work.

As to `Nc1nc(=O)c2c([nH]1)NCC(CNc1ccc(C(=O)N[C@@H](CCC(=O)O)C(=O)O)cc1)N2C=O` (mixture of isomers) [folinic acid], the “spermatozoa number and fertility” value in assay [1] was “increases spermatozoa number and fertility”.

For `Nc1nc2ncc(CNc3ccc(C(=O)N[C@@H](CCC(=O)O)C(=O)O)cc3)nc2c(=O)[nH]1` [5 mg folate, folic acid], the “Percentage improvement of spermcount after administration of active agents, compared to initial spermcount” value is 0 in assay [2] (fertile men) and “+++” in assay [2] (subfertile men). For the same compound, in assay [2] (folate alone, especially subfertile men), the sperm count result is listed as “increases sperm count”. Further, the “sperm counts and motility and DNA content of spermatozoa” value with spermatozoa is recorded as “did not result in an increase”.

In the case of `O=S(=O)([O-])[O-].[Zn+2]` [15 mg zinc, zinc sulphate], the sperm counts result in assay [2] (both groups, so also in fertile men) is listed as “increases sperm counts in both groups”. Further, the “Percentage improvement of spermcount after administration of active agents, compared to initial spermcount” value is recorded as “+” in assay [2] (fertile men) and “++” in assay [2] (subfertile men). Besides, in assay [3], the “sperm and number of spermatozoa having normal morfology and motility” value is reported as “improved significantly”. Further, the “fertility of fowl seminal plasma” value in the assay on fowl seminal plasma is “reduced the fertility”.
